In patent publication US10441568B2, “Nitroxide radicals for the treatment of diseases of the respiratory tract” (priority 2015, dated 2019):

Legend:
[1] = previously established; cited from earlier work
[2] = tested on: ovalbumin-induced asthma model; assay: Lung histopathology, H&E pathology scoring, OVA asthma model; assay type: in vivo, mice; conditions: FIG. 9
Protocol: Following aspiration of BAL as described hereinabove, a thoracotomy was performed, and the right main bronchus was tied. The left lung was fixed by means of intrabronchial infusion with 1 ml of 4% formaldehyde, and then immersed in fixative (10% (v/v) neutral buffered formalin) for 24 hours at 4° C. Transverse sections of the left lung were embedded in paraffin, and […] sections were stained with hematoxylin and eosin (H&E) by Hadassah Hospital Pathology Service (Jerusalem, Israel). In addition, periodic acid-Schiff (PAS) staining was performed on lung tissue, and the degree of mucin production was measured from PAS staining.
In order to evaluate the effect of 3-CP on lung pathology, animals in an ovalbumin-induced asthma model were treated with 3-CP, and killed by abdominal aortic transaction and exsanguination, according to procedures described hereinabove. Lung tissue was examined by hematoxylin and eosin (H&E) staining, the degree of mucin production was determined from periodic-acid-Schiff (PAS) staining.

[3] = tested on: bleomycin-induced pulmonary fibrosis; assay: Inflammatory cell counts in BAL fluid, bleomycin pulmonary fibrosis model; assay type: in vivo, mice; conditions: 3-CP 150 mg/kg daily intranasal, 14 days, FIG. 18
Protocol: Bronchoalveolar lavage (BAL) fluid (also referred to herein as “BALf”) and bronchial submucosal inflammation are characteristic features of asthma. Mice were euthanized with an overdose of 50 mg/kg pentobarbital and ice-cold phosphate buffer saline (PBS) (0.6 ml) was instilled into the lungs. BAL fluid was obtained by three aspirations via tracheal cannulation, centrifuged, and the supernatant collected and stored at −70° C. Cell pellets were re-suspended in PBS and 100 μl aliquots placed onto slides and centrifuged (200 g, 4° C., 10 minutes) in a cytospin machine. Induction of oxidative stress was evaluated using a 2′,7′-dichlorofluorescein fluorescence assay, and total IgE, IgG2a, panel of cytokines, transforming growth factors, collagen, protein nitration and lipid peroxidation were measured using commercial kits according to the manufacturer's recommendations. A Sircol™ collagen assay kit was obtained from Biocolor Life Sciences Assays, a protein nitration assay kit was obtained from Abcam, and other assay kits were obtained from PeproTech Asia. […]
The effect of 3-CP on bleomycin-induced inflammation was evaluated by determining lung resistance, total inflammatory cell count, and TGF-β1 levels, according to procedures described hereinabove.

IL-5 = IL-5 level in OVA asthma model; assay type: in vivo, BALB/c mice; conditions: for IL-5 level: lung tissue (table title)
Protocol: (§1) All experimental procedures were carried out in accordance with the NIH Guidelines for the Care and Use of Laboratory Animals. Specific pathogen-free (SPF) male BALB/c mice (6-7 weeks of age, 18-22 grams), routinely screened serologically for relevant respiratory pathogens, were maintained in an animal housing facility for 1 week before use and given access to food and water ad libitum. Animals were randomly assigned to the indicated experimental groups, and sensitized with two intraperitoneal (IP) injections (20 μg ovalbumin (OVA) emulsified in 2 mg aluminum hydroxide (an adjuvant) in 200 μl phosphate buffer saline (PBS), pH 7.4), on days 1 and 10.
(§2) After another week, the animals were challenged by exposure to ovalbumin (OVA) aerosol (1%, w/v, in PBS) for 30 minutes each day on days 17, 18 and 19, in order to elicit an inflammatory reaction in the lungs characterized by airway hyper-responsiveness (AHR), an influx of inflammatory cells (particularly eosinophils), and increased pulmonary levels of various cytokines and transforming growth factors, protein nitration and lipid peroxidation.
(§3) Bronchoalveolar lavage (BAL) fluid (also referred to herein as “BALf”) and bronchial submucosal inflammation are characteristic features of asthma. Mice were euthanized with an overdose of 50 mg/kg pentobarbital and ice-cold phosphate buffer saline (PBS) (0.6 ml) was instilled into the lungs. BAL fluid was obtained by three aspirations via tracheal cannulation, centrifuged, and the supernatant collected and stored at −70° C. Cell pellets were re-suspended in PBS and 100 μl aliquots placed onto slides and centrifuged (200 g, 4° C., 10 minutes) in a cytospin machine. Induction of oxidative stress was evaluated using a 2′,7′-dichlorofluorescein fluorescence assay, and total IgE, IgG2a, panel of cytokines, transforming growth factors, collagen, protein nitration and lipid peroxidation were measured using commercial kits according to the manufacturer's recommendations. A Sircol™ collagen assay kit was obtained from Biocolor Life Sciences Assays, a protein nitration assay kit was obtained from Abcam, and other assay kits were obtained from PeproTech Asia.
(§4) The efficacy of oral administration of 3-CP (1 weight percent in chow) during the sensitization period and/or challenge period was then compared to IP injection (˜300 mg/kg, 0.5 hour before the OVA challenge) or intranasal instillation (˜150 mg/kg, 0.5 hour before the OVA and 6 hours later) of 3-CP, as well as to dexamethasone treatment (1 mg/kg, 3 daily IP injections, 0.5 hour prior to the challenge with OVA aerosol).
(§5) In order to assess the effect of 3-CP on inflammatory signaling pathways, […] to procedures described hereinabove, upon oral, intranasal or IP administration of 3-CP.

3-nitrotyrosine (3-NT) = assay: Protein nitration (3-nitrotyrosine) in lung homogenates, OVA asthma model; assay type: in vivo, mice; conditions: 3-CP via all tested modes of delivery (oral, IP, IN), FIG. 8
Protocol: as §3
In order to determine whether 3-CP reduces protein nitration, a form of cell damage induced by peroxynitrite (an anion generally believed to be formed in vivo by a reaction of superoxide radical and nitric oxide), lung homogenates were assayed for 3-nitrotyrosine (3-NT) levels.

IFN-γ = IFN-γ level in OVA asthma model; assay type: in vivo, BALB/c mice; conditions: for IFN-γ level: lung tissue (table title)
Protocol: as §1, §2, §3, §4, §5

[4] = tested on: mice with OVA-induced chronic asthma; assay: Pulmonary collagen content, severe (chronic) asthma model; assay type: in vivo; conditions: FIG. 16
Protocol: Bronchoalveolar lavage (BAL) fluid (also referred to herein as “BALf”) and bronchial submucosal inflammation are characteristic features of asthma. Mice were euthanized with an overdose of 50 mg/kg pentobarbital and ice-cold phosphate buffer saline (PBS) (0.6 ml) was instilled into the lungs. BAL fluid was obtained by three aspirations via tracheal cannulation, centrifuged, and the supernatant collected and stored at −70° C. Cell pellets were re-suspended in PBS and 100 μl aliquots placed onto slides and centrifuged (200 g, 4° C., 10 minutes) in a cytospin machine. Induction of oxidative stress was evaluated using a 2′,7′-dichlorofluorescein fluorescence assay, and total IgE, IgG2a, panel of cytokines, transforming growth factors, collagen, protein nitration and lipid peroxidation were measured using commercial kits according to the manufacturer's recommendations. […]
3-CP was administered orally (1 weight percent in chow) during the entire experiment, and dexamethasone (Dex) was administered via IP injection (1 mg/kg) one hour before each challenge. Inflammatory cell counts and pulmonary collagen content were then evaluated according to procedures described hereinabove, in order to assess effects on inflammation and remodeling, respectively.

IL-4 = IL-4 level in OVA asthma model; assay type: in vivo, BALB/c mice
Protocol: as §1, §2, §3, §4, §5

[5] = OVA IP-C: 3-CP intraperitoneal during challenge
[6] = OVA oral-C: 3-CP oral during challenge
[7] = OVA oral-S&C: 3-CP oral during sensitization and challenge
[8] = OVA oral-S: 3-CP oral during sensitization
[9] = oral administration vs IP injection

## CC1(C)CC(C(N)=O)C(C)(C)N1[O] (stereo not shown) [3-CP, 3-Carbamoyl-2,2,5,5-tetramethyl-pyrrolidin-1-oxyl]
[1]
  maximally tolerated dose: 300 to 500 mg/kg
[2]; 3-CP via all tested modes of delivery
  effect on degree of lung pathology, H & E pathology scoring: reduced the degree of lung pathology
[2]
  H & E lung pathology, 3-CP compared with dexamethasone: more effective in this respect than treatment with dexamethasone
[3]
  effect on bleomycin-induced increase in inflammatory cell counts in BAL fluid: significantly reduced
IL-5; [5]
  IL-5 level: 2.08 ng/mg
IL-5; [6]
  IL-5 level: 2.40 ng/mg
IL-5; [7]
  IL-5 level: 1.96 ng/mg
IL-5; [8]
  IL-5 level: 3.16 ng/mg
IL-5; lung tissue, FIG. 7B and Table 1
  effect on OVA-induced increase in the level of IL-5: inhibited
IL-5; [9]
  modulating IL-5 level, oral compared with IP 3-CP: consistently more effective than IP injection of 3-CP
3-nitrotyrosine (3-NT)
  effect on pulmonary 3-NT levels: markedly suppressed 3-NT levels as compared to the vehicle control as well as treatment with dexamethasone
IFN-γ; [5]
  IFN-γ level: 5.17 ± 0.19 ng/mg
IFN-γ; [6]
  IFN-γ level: 5.32 ± 0.38 ng/mg
IFN-γ; [7]
  IFN-γ level: 5.60 ± 0.22 ng/mg
IFN-γ; [8]
  IFN-γ level: 3.78 ± 0.27 ng/mg
IFN-γ; lung tissue, FIG. 7C and Table 1
  effect on OVA-induced decrease in the level of INF-γ: inhibited
IFN-γ; [9]
  modulating IFN-γ level, oral compared with IP 3-CP: consistently more effective than IP injection of 3-CP
[4]; 3-CP oral 1 weight percent in chow during entire experiment
  effect on increase in collagen content of the lung: completely reversed the increase in collagen content
[4]; 3-CP oral, dexamethasone 1 mg/kg IP before each challenge
  reducing collagen content, 3-CP compared with dexamethasone: more effective than dexamethasone treatment at reducing collagen content
IL-4; FIG. 7A and Table 1
  effect on OVA-induced increase in the level of IL-4: inhibited
IL-4; [5]
  IL-4 level: 1.70 ng/mg
IL-4; [6]
  IL-4 level: 2.03 ng/mg
IL-4; [7]
  IL-4 level: 1.65 ng/mg
IL-4; [8]
  IL-4 level: 2.44 ng/mg
IL-4; [9]
  modulating IL-4 level, oral compared with IP 3-CP: consistently more effective than IP injection of 3-CP
